Assay results taken from the NIST ThermoML archive (doi:10.1021/je501130r).
Numbers after ± are expanded uncertainties.

Details: Liquid, Closed cell (Static) method

SMILES	vapor or sublimation pressure (293.15 K)	vapor or sublimation pressure (303.15 K)	vapor or sublimation pressure (313.15 K)
C=C(F)C(F)(F)F [2,3,3,3-tetrafluoro-1-propene]	591.5 ± 3.5 kPa	783.6 ± 3.8 kPa	1018.9 ± 4.3 kPa
CC(F)(Cl)C(F)(F)F (stereo unspecified) [2-chloro-1,1,1,2-tetrafluoropropane]	128.3 ± 3 kPa	181.6 ± 3.1 kPa	247.6 ± 3.1 kPa
